Results reported in patent publication US6262021A, “Use of substances having oxytocin activity for preparation of medicaments for wound healing” (EntreTech Medical AB, priority 1997, dated 2001).

Key:
[1] = tested on: FGF-1; assay: Concentration of FGF in skin biopsies from the injured area of diabetic mice; type: in vivo, C57BL/Ks-db/db diabetic mice; conditions: 10 μg/cm^2 oxytocin; skin biopsies 7 days after injury; ten mice; p<0.001
Protocol: The concentration of FGF was compared in skin biopsies taken from the injured area ("ulcer") of ten mice treated with 10 μg/cm^2 oxytocin and ten mice treated with PBS 7 days after injury. […] This increase in concentration was highly significant (p<0.001) and strongly support the hypothesis that oxytocin increases wound healing through an increased expression and synthesis of FGF-1.

[2] = tested on: NGF; conditions: intravenous injection, female rats; cited from earlier work
[3] = tested on: central α2 -receptors; assay: Activity of central α2-receptors after oxytocin; type: in vivo; conditions: rats; by way of a central action
Text: Experiments have shown that oxytocin by way of a central action increases the activity of the central α2 -receptors in rats. These receptors have an inhibitory action and counteracts the activating aspects of noradrenalin in the brain which are mainly mediated via α1 -receptors, which activate cyclic AMP. When α2 -receptor stimulation dominates over α1 -receptor stimulation, activity is exchanged by relaxation and energy is shunted towards growing and healing, i.e. is not used for stress or muscular contraction and activity. As a consequence parasympathetic nerve tone dominates over sympathetic nervous tone and the musculature is relaxed. It can be presumed that oxytocin exerts a similar effect also in humans. During breast feeding--a situation characterized by repetitive oxytocin secretion--all the effects observed in experimental animals following repeated oxytocin administration are seen. It is not known how the effect by oxytocin on α2 -receptors is mediated, but probably not by a classical oxytocin receptor mediated effect.

[4] = tested on: full-thickness dermal excisional wounds; assay: Wound healing in diabetic mice after administration of oxytocin (Test 2); type: in vivo, C57BL/Ks-db/db diabetic mice
Text: For studying the effects of cutaneous wound-healing agents on chronic non-healing dermal ulcers the mutant C57BL/Ks-db/db diabetic mouse has emerged as a potentially relevant healing-impaired model. These homozygous genetically diabetic mice develop obesity and hyper-glycemia that is resistant to insulin, analogous to human type II diabetes. They also show signs of diabetes such as excessive drinking and urination and greatly elevated urinary glucose levels. […] Previous studies have used this model to evaluate formulations of aFGF.
Female C57BL/Ks-db/db diabetic mice, 11 weeks old, were obtained from Jackson Laboratories (Bar Harbor, Me.). The mice were housed in sterile microisolator boxes (four per box) with sterile water and bedding and were kept in a semi-barrier quarantine facility. Supplemental heat was provided with electric heating pads under half of each box after wounding to prevent hypothermia and reduce mortality.
Mice were anesthetized with intraperitoneal injections of 110 mg ketamine and 9 mg xylazine per kg of body weight. The mid-back and thoracic skin was shaved and disinfected with a 2% Chlorhexidine surgical scrub, followed by 70% ethanol. A template 1.6 cm in diameter was used to mark a 2.0 cm^2 circle on the mid-dorsal area, and a single full-thickness wound was created by blunt excision with sterile curved iris scissors. […] All surgical and subsequent healing analysis procedures were performed in a laminar flow hood using full aseptic techniques. Doses were administrated on 5 consecutive days before, and on day 0, 3 and 7 after injury. Oxytocin was administrated at different doses, 0.001, 0.01, 0.1, 1.0, 10.0 and 100.0 μg/cm^2 , respectively, to groups of 16 mice per dose. The wounds were covered with a semitransparent Bioclusive dressing (Johnson & Johnson Products, New Brunswick, N.J.) for protection, maintenance of a moist environment and prevention of crust formation. Wound fluid samples were taken at day 10 after injury and cultured for aerobic and anaerobic microorganisms.
Wound appearances were recorded photographically and their perimeters were traced onto sterile glass slides applied directly to the exposed wound surfaces after pre-wetting with a drop of sterile physiologic saline. Measurements were made immediately after wounding and twice weekly thereafter until the wounds were completely closed. Wound areas and perimeters were determined from the glass-slide tracings using computerized image analysis. Statistical significances of differences between groups were evaluated using an unpaired two-tailed Student t-test.
Healing expressed as a decrease in percent initial area was converted to linear ingrowth from the wound edges by dividing the differences in wound areas by the average wound perimeters at sequential time intervals. Total ingrowth at a specific time is the sum of the incremental ingrowth distances up until that time. This transformation linearized closure as a function of time, thereby allowing expression of healing as kinetic rates that were constant over time.
Wounds, examined twice weekly to monitor time to total closure, were considered fully healed when moist granulation tissue was no longer apparent, indicating a functional epidermal water-permeability barrier. Closure was also confirmed histologically. Time-point comparisons of the fraction of healed versus unhealed wounds were analyzed by the X^2 statistic with Yates correction, and group comparisons of absolute days to total closure for individual animals were analyzed by an unpaired two-tailed Student t-test.

[5] = tested on: musculocutaneous flaps; assay: Survival of musculocutaneous flaps in rats after administration of oxytocin (Test 1); type: in vivo, rats (Sprague-Dawley); conditions: 1 mg/kg s.c. 24 h and 1 h before and 24 h after operation; estimated six days after operation; oxytocin p<0.05, antagonist no significance p=0.13
Text: An established model of wound healing is to investigate the survival of musculocutaneous flaps in rats. In plastic surgery, reconstructive problems are often solved by surgical flaps. The main disadvantage of surgical flaps has been their tendency to develop ischemia and eventually necrosis of the distal part. This complication can in the end ruin what postoperatively seemed to be an excellent result. Much research has been devoted to explain the mechanisms of surgical skin flap survival and how to prevent and reverse established ischemia.
The aim of this study was to investigate the effects of oxytocin on the survival of musculocutaneous flaps in rats.
71 female albino rats (Sprague-Dawley, weight 180-220 g) were anaesthetized with chloralhydrate (0.4 g/kg), shaved on the back and a dorsal cranially based standard flap (2×7 cm) was elevated and then sutured back in position. The flap was raised from the deep fascia of muscle and included the superficial fascia, panniculus carnosus, subcutaneous tissue and skin. 24 h and 1 h before operation, respectively, as well as 24 h after operation the rats were treated with 1 mg/kg oxytocin s.c. (n=20), an oxytocin antagonist, that is 1-deamino-2-D-Tyr-(OEt)-4-Thr-8-Orn-oxytocin in an amount of 1 mg/kg (n=15), with 1 mg/kg of said oxytocin antagonist and then after 30 minutes with 1 mg/kg oxytocin (n=16), or with saline (n=20). […]

SMILES: CC[C@H](C)[C@@H]1NC(=O)[C@H](Cc2ccc(O)cc2)NC(=O)[C@@H](N)CSSC[C@@H](C(=O)N2CCC[C@H]2C(=O)N[C@@H](CC(C)C)C(=O)NCC(N)=O)NC(=O)[C@H](CC(N)=O)NC(=O)[C@H](CCC(N)=O)NC1=O [oxytocin]
- FGF-1 synthesized, increase compared to PBS vehicle treated mice [1]: 162%
- hypothalamic levels of NGF [2]: increase
- activity of the central α2 -receptors [3]: increases
- healing rates over paired vehicle controls ([4]; 0.001 μg/cm^2, 0.01 μg/cm^2 and 0.1 μg/cm^2 doses): ineffective
- linear rate of healing from the wound edges ([4]; 10 μg/cm^2, all time intervals, p≤0.01): increased
- enhancement of the healing rate of treated wounds ([4]; 10 μg/cm^2, as early as day 7 after injury and throughout the test period, p≤0.01): Statistically significant enhancements
- total closure (fraction of wounds closed) ([4]; 10 μg/cm^2, by day 14, p≤0.05): increases
- decrease in wound size in treated mice compared with PBS/heparin vehicle ([4]; 10 μg/cm^2, day 14): 10 fold
- maximum difference in percent of initial area between oxytocin and vehicle-treated wounds ([4]; 10 μg/cm^2, from 14 d after injury): 50%
- mean linear healing rate ([4]; 10 μg/cm^2, vehicle-treated group 0.18 mm/d, p≤0.01): 0.45 mm/d
- decrease of time to total closure ([4]; 0.001-μg/cm^2 and 0.01 μg/cm^2 doses): ineffective
- time required for wounds to close completely ([4]; 1 to 100 μg/cm^2 per dose): significantly reduced
- wounds closed sooner than respective vehicle controls ([4]; dose range 1.0 to 10.0 μg/cm^2): approximately 10 d
- wound closure compared with vehicle control ([4]; three doses of 10 μg per cm^2 initial wound area during first week after wounding, topical): substantially faster
- median time to complete closure ([4]; three doses of 10 μg/cm^2 during first week after injury, vehicle 52 d, p≤0.0001): 23 days
- healing rates over paired vehicle controls ([4]; three topical applications, 1 to 100 μg/cm^2 per dose, first week after injury): significant dose-related increases
- survival of the flaps compared to the saline-treated controls [5]: significantly higher
